Reference: US12599560B2, “Lipids and lipid nanoparticle formulations” (Longuide Biopharma Corporation, priority 2023, dated 2026)

How the values were obtained:
Type in all cases: physicochemical
[1] = Potential characterization of nanoparticle preparations
Protocol: 20 μL of the nucleic acid lipid nanoparticle solution (containing about 0.04 mg/mL mRNA) was taken and added with 780 μL of ultrapure water, used a pipette tip to gently blow and mix, and the potential of the nanopreparation was detected by Malvern particle sizer (model ZEN3700). 27.5 μL nucleic acid lipid nanoparticle solution (containing about 0.04 mg/mL mRNA) was taken and added with 200 μL ultrapure water. A pipette tip was used to gently blow the sample and mix well. The particle size of the nanopreparation was detected by Malvern Dynamic Light Scattering Instrument (Malvern Instruments Ltd., ZEN3700, UK). After the detection, the sample was recovered to an EP tube, and 600 μL of ultrapure water was added, gently blown with a pipette tip, and the potential of the nanopreparation was measured by a Malvern particle size meter.

[2] = Nucleic acid encapsulation efficiency by fluorescence (RiboGreen)
Protocol: The nucleic acid encapsulation rate of the nucleic acids lipid nanoparticle formulations obtained in steps 6, 7, and 8 can be determined by fluorescence methods, such as using the Quant-iT™ RiboGreen RNA Quantification Kit (Thermo Fisher Scientific). Take the RiboGreen RNA Quantification Kit as an example: Configure the low-range working solution and mRNA standard solution according to the instructions. Take 3 μL of the nucleic acid lipid nanoparticle solution obtained in step 6, add 297 μL of the Tris-EDTA buffer (TE buffer) provided with the kit, mix well, and then suck up 100 μL of it into the black-bottomed ninety-six-well plate, and then add 100 μL of the RiboGreen low-range detection working solution. Add 100 μL of different concentrations of mRNA standard solution into the black bottom 96-well plate, and add 100 μL of RiboGreen low-range detection working solution. After gently blowing and mixing well, incubate for 5 minutes away from light, and then immediately detect and record the fluorescence signal intensity using a multifunctional enzyme labeling instrument (BMG LABTECH, FLUOstar Omega). The free mRNA content not encapsulated by the lipid nanoparticles was calculated by standard curve fitting and calculation, and then divided by the total amount of mRNA in the wells detected to find the nucleic acid encapsulation rate of this nucleic acid lipid nanoparticle preparation.

[3] = Stability of LNP formulations after storage; settings: both formulations; physical stability and in vivo delivery efficiency
Protocol: Excipients and/or cryoprotectants, such as sucrose, can be added to the nucleic acid lipid nanoparticle preparation obtained in step 6 or to the nucleic acid lipid nanoparticle preparation obtained after dialysis in step 7. As an example, 40% sucrose (Aladdin Reagent (Shanghai) Co., Ltd.) was added to the nucleic acid lipid nanoparticle preparation with the volume ratio of 3:1, which is mixed homogeneously to obtain nucleic acid lipid nanoparticle preparation containing 10% sucrose, and further aliquoted into ribozyme-free centrifuge tubes and stored in an ice box, 4° C., −20° C., and/or −80° C. refrigerator for later use. Physicochemical property measurement and in vivo effect validation of the lipid nanoparticles were performed after thawing and returning to room temperature after storage for the indicated time.

[4] = formulation No. 1, molar ratio 1.50:20:33.50:45.00
[5] = formulation No. 2, molar ratio 1.50:11.50:38.50:48.50

For `CCCCCCCCCCCCOC(=O)C(O)CN(CCCN1CCN(CCCN(CC(O)C(=O)OCCCCCCCCCCCC)CC(O)C(=O)OCCCCCCCCCCCC)CC1)CC(O)C(=O)OCCCCCCCCCCCC` (stereo not drawn) [Compound L0191], the Zeta potential [1, 4] was 11.30 ± 0.69, the Zeta potential [1, 5] was 12.67 ± 0.61 and the “encapsulation efficiency (in words)” value ([2]; all tested formulations) was “high”. For the same compound, the encapsulation efficiency [2, 4] was 96.26%, the encapsulation efficiency [2, 5] was 97.92% and the “stability after storage under different conditions” value [3] was “excellent stability”.
